Measurements as given in PMC6934184, “Selective DNA-PKcs inhibition extends the therapeutic index of localized radiotherapy and chemotherapy” (The Journal of Clinical Investigation, 2019).

Experiment: pharmacokinetic analysis in Calu-6 tumor–bearing mice
Assay type: in vivo, mouse
Conditions: 30-mg/kg oral dose
Description: by determining the absorbance at 570 nm of SRB stain dissolved in Tris base (10 mM, pH 10.5) using a spectrophotometer (BMG Labtech).
In vivo pharmacokinetic analyses
All animal experiments were performed in accordance with the Animals (Scientific Procedures) 1986 Act. 8-9 week old mice were purchased from Charles River Laboratories and housed under specific pathogen-free conditions under 12 hour light/dark cycles.
Female CD-1, CD-1 nude, BALB/c nude and C57BL/6 mice were treated with NU5455 (30 or 100 mg/kg prepared in 1% (v/v) acetic acid or NMP:Encapsin (30% aq):PEG4000 (1:6:3 v/v/v) dosed by oral gavage. Blood samples were collected into heparinized tubes at 15, 30, 60, 180 and 360 minutes post-gavage.
Blood samples were centrifuged at 6700 x g for 3 minutes, the plasma removed and stored at -20°C prior to analysis for drug by HPLC with fluorescence detection. Aliquots of plasma (50 µl) were vigorously vortexed with acetonitrile (450 µl) and the precipitate removed by centrifugation at 6700 x g for 5 minutes. […]
Samples (20 µl) were applied to a 10 x 0.46 cm Genesis C18 4 µm column (Grace Vydac) fitted with an in-line filter. […] Analytes were detected by fluorescence at 390 nm following excitation at 242 nm. Plasma concentrations were determined using linear standard curves (0.01 µM – 10 µM, R2 > 0.98) generated by extracting compounds from […]

## CN(C(=O)CN1CCOCC1)c1ccc2sc3c(-c4cccc5c(=O)cc(N6CC7CCC(C6)O7)oc45)cccc3c2c1 [NU5455]
  period NU5455 concentrations in plasma, lung, tumor, or surrounding skin maintained at approximately 1 μM (0.6 μg/mL or μg/g tissue) or above: 3 h
